# In US20220125841A1, “SODIUM F[…] A REVERSAL AGENT FOR AN ANTI-F[…] T CELLS AND FLUORESCEIN-PHOSPHOLIPID-ETHERS OR PROFLUORESCEIN-PHOSPHOLIPID-ETHERS” (Seattle Children's Hospital (dba Seattle Children'a …, priority 2019, published 2022):
# Legend:
# antiFL(Mut2) CAR T cells [1] = test: In vivo intravenous use of NaFL to reverse cytokine toxicity by antiFL CAR T cells (Example 4); design: species or system mice
# Experimental: Group A—control (5 mice): MDA-MB-231 tumor+antiFL(Mut2) CAR T cells.
# Group B—FL-PLE without NaFL (5 mice): MDA-MB-231 tumor+antiFL(Mut2) CAR T cells+1 mg IV FL-PLE.
# Group C—FL-PLE and NaFL (5 mice): MDA-MB-231 tumor+antiFL(Mut2) CAR T cells+1 mg IV FL-PLE+0.5 mg IV NaFL (as needed).
# Group D—No tumor control (3 mice): antiFL(Mut2) CAR T cells+1 mg IV FL-PLE+0.5 mg IV NaFL (as needed).
# Mice receiving FL-PLE (Groups B, C, and D) were administered FL-PLE IV first. AntiFL(Mut2) CAR T cells were subsequently administered in all mice 2 days following FL-PLE administration. […] Reduction of cytokine toxicity symptoms in mice of Groups C and D was observed within 15 minutes after administration of NaFL.
# [2] = test system: antiFL(FITC-E2) CAR T cells; test: Chromium release assay and cytokine release assay, antiFL(FITC-E2) CAR T cells with FL-PLE-loaded K562 target cells; type: cell-based; settings: 50 μM NaFL; K562 target cells with 5 μM FL-PLE
# Experimental: FIG. 1B depicts a chromium release assay for effector T cells (CD8+ Mock or CD8+ antiFL(FITC-E2) CAR(Lg) T cells) mixed at various ratios with target cells (effector:target, E:T). The target cells are K562 control, K562 OKT3+, and K562 with 5 μM FL-PLE. One CD8+ antiFL(FITC-E2) population was exposed to 50 μM NaFL.
# FIG. 1C depicts a cytokine release assay for helper cells (CD4+ Mock or CD4+ antiFL(FITC-E2) CAR(Lg) T cells) and effector T cells (CD8+ Mock or CD8+ antiFL(FITC-E2) CAR(Lg) T cells) mixed with target cells. The target cells are K562 control, K562 OKT3+, and K562 with 5 μM FL-PLE. One CD4+ and CD8+ antiFL(FITC-E2) population was exposed to 50 μM NaFL.
# K562 (leukemia) cells were incubated with FL-PLE overnight. Cell integration of FL-PLE was analyzed by flow cytometry (FIG. 1A). There was a clear shift from the control K562 parental with the K562 parental incubated with 5 μM FL-PLE. This slight shift corresponded to a difference in the amount of FL exposed on the surface of the cell for CAR T cell recognition. These cells were used in a chromium release assay (FIG. 1B) and a cytokine release assay (FIG. 1C) to test whether the activation of CD8+ and CD4+ antiFL(FITC-E2) CAR T cells through FL-PLE integrated into K562 cells could be stopped in the presence of sodium fluorescein (NaFL). […]
# [3] = test system: antiFL(FITC-E2) CAR T cells; test: MDA-MB-231 xenograft mouse model: monitoring of cytokine release syndrome (CRS) and cytotoxicity; type: in vivo, mice
# Description: FIG. 2B depicts levels of cytokine release syndrome (CRS) and cytotoxicity in an MDA-MB-231 adenocarcinoma tumor xenograft mouse model over time. FIG. 2B (lower panel) is an enlargement of an area of FIG. 2B (upper panel).
# After an adenocarcinoma (MDA-MB-231) tumor was established in 2 groups of mice by subcutaneous injection (2 tumors per mouse in opposite flanks), the mice received an intravenous injection of antiFL(FITC-E2) CART cells on day 6. The control group (no drug) only received the antiFL(FITC-E2) CAR T cells and the tumor progressed as normal. […] The mice were monitored for cytokine release syndrome (CRS) and cytotoxicity on a scale ranging from 1 (healthy) to 5 (dead) (FIG. 2B). On day 17, the intratumoral dose of FL-PLE was increased to 2 μg per tumor. On day 18, the mice had levels of CRS/toxicity between 3 and 4 at which point they received a dose of 0.56 mg of NaFL via an intravenous injection. […] After this, all doses of FL-PLE were administered at 1 μg per tumor.
# antiFL(Mut2) CAR T cells [4] = test: Cytokine release assay with dose titration of NaFL (Example 3); type: cell-based
# Experimental: FIG. 3D depicts a cytokine release assay measuring IL-2 using the effector cells generated in FIG. 3A-B, target cells tested in FIG. 3C, and a dose titration of NaFL (0, 1, 5, or 10 μM).
# FIG. 3E depicts a cytokine release assay measuring IFN-γ using the effector cells generated in FIG. 3A-B, target cells tested in FIG. 3C, and a dose titration of NaFL (0, 1, 5, or 10 μM).
# FIG. 3F depicts a cytokine release assay measuring TNF-α using the effector cells generated in FIG. 3A-B, target cells tested in FIG. 3C, and a dose titration of NaFL (0, 1, 5, or 10 μM).
# CD4+ and CD8+ T cells from peripheral blood mononuclear cell preparations from two donors were lentivirally transduced to express long CAR cassettes comprising the antiFL(Mut2) CAR. The CAR cassette also contains the gene for a double mutant dihydrofolate reductase that allows for methotrexate positive selection to enrich for transduced CAR-expressing cells as well as the gene for the truncated CD19 (CD19t) surface marker that denotes CAR positivity. The selected cells are then subjected to a standard rapid expansion protocol using irradiated TM-LCL and PBMC feeder cells. After 14 days of expansion, cells were stained with anti-CD4, anti-CD8, and anti-CD19 antibodies as well as a live-dead stain to characterize surface phenotypes by flow cytometry. Flow plots for the CD4 and CD8 populations (FIG. 3A) and CAR positivity (FIG. 3B) are shown for mock and antiFL(Mut2) CAR T cells for both donors. These are the effector cells to be used in subsequent experiments.
# A cytokine release assay was set up to examine how a dose titration of NaFL (0, 1, 5, and 10 μM) affects the activation of antiFL CAR T cells. The CAR T cells are the antiFL(Mut2) CAR T cells generated in this example. Target cells were incubated with FL-PLE/NaFL for 24 hours or overnight. The media supernatant from target cell cultures were harvested and constituent cytokines were measured (e.g. with a Bio-Plex Human Cytokine Screening Panel). The cytokines IL-2 (FIG. 3D), IFN-γ (FIG. 3E), and TNF-α (FIG. 3F) were measured.
smiles,measurement,setting,value
"O=C([O-])c1ccccc1-c1c2ccc(=O)cc-2oc2cc([O-])ccc12.[Na+].[Na+] [NaFL, sodium fluorescein]",Tolerability in vivo,"antiFL(Mut2) CAR T cells [1]; 0.5 mg IV NaFL, mice",well tolerated
same,Time to reduction of cytokine toxicity symptoms after administration of NaFL,"antiFL(Mut2) CAR T cells [1]; Groups C and D, 0.5 mg IV NaFL",≤ 15 min
same,Cytokine levels after NaFL,"antiFL(Mut2) CAR T cells [1]; Groups C and D, 2 days following first administration of NaFL, optionally with additional IV injections",comparable to baseline
same,Effect of NaFL on recognition and activation of antiFL(FITC-E2) CAR T cells,[2],able to stop the recognition and activation
same,Time for cytotoxicity level to return to roughly baseline levels after NaFL,[3]; 0.56 mg NaFL intravenous injection on day 18,≤ 12 h
same,Cytotoxicity level after NaFL,[3]; 0.56 mg NaFL intravenous injection on day 18 at CRS/toxicity level 3 to 4,"Within minutes, the cytotoxicity level had dropped"
same,"Amount of activation of antiFL(Mut2) CAR T cells (IL-2, IFN-γ, TNF-α) versus amount of NaFL","antiFL(Mut2) CAR T cells [4]; NaFL 0, 1, 5, and 10 μM, all three cytokines, both donor T cells",decreased by the amount of NaFL present in the solution in a linear fashion
same,Effect of NaFL on IL-2 release by antiFL(Mut2) CAR T cells,"antiFL(Mut2) CAR T cells [4]; NaFL 0, 1, 5, or 10 μM, FIG. 3D",dose dependent
same,Effect of NaFL on IFN-γ release by antiFL(Mut2) CAR T cells,"antiFL(Mut2) CAR T cells [4]; NaFL 0, 1, 5, or 10 μM, FIG. 3E",dose dependent
same,Effect of NaFL on TNF-α release by antiFL(Mut2) CAR T cells,"antiFL(Mut2) CAR T cells [4]; NaFL 0, 1, 5, or 10 μM, FIG. 3F",dose dependent
